In US20240181014A1 (priority 2021, published 2024):
Read-outs that look alike come from different tables or passages of the source.

Assays:
[1] = compounded ALA (injection, suppository, topical, troche; intravenous); cited from earlier work
[2] = test system: post-COVID-19 syndrome patients; assay type: in vivo, human

| SMILES | safety concerns in available clinical reports [1] | blood oxygenation value pO2 at end of treatment ([2]; Example 4, patient) [mmHg] | status at control visit ([2]; Example 4, patient) | external oxygen supply ([2]; Example 4, patient, needed intermitted oxygenation before) | blood oxygenation value pO2 at room air ([2]; Example 4, patient, pO2 92 mmHg before) [mmHg] | breathing at end of treatment ([2]; Example 4, patient, severe difficulties to breath before) | breathing at end of treatment ([2]; Example 5, patient) | status at control visit ([2]; Example 5, patient) | blood oxygenation value pO2 at room air at end of treatment ([2]; Example 5, patient, pO2 93 mmHg before) [mmHg] | ability to work at end of treatment ([2]; Example 5, patient, unable to work due to extreme fatigue and cough before) |
| --- | --- | --- | --- | --- | --- | --- | --- | --- | --- | --- |
| O=C(O)CCCC[C@@H]1CCSS1 [ALA, (R)-5-(1,2-Dithiolan-3-yl)pentanoic acid] | no serious safety concerns |  |  |  |  |  |  |  |  |  |
| CC[C@H](C)[C@H](NC(=O)[C@H](CO)NC(=O)[C@H](CC(N)=O)NC(=O)[C@H](CC(C)C)NC(=O)[C@H](Cc1ccc(O)cc1)NC(=O)[C@H](CCCCN)NC(=O)[C@H](CCCCN)NC(=O)[C@@H](NC(=O)[C@H](C)NC(=O)[C@H](CCSC)NC(=O)[C@H](CCC(N)=O)NC(=O)[C@H](CCCCN)NC(=O)[C@H](CCCNC(=N)N)NC(=O)[C@H](CC(C)C)NC(=O)[C@H](CCCNC(=N)N)NC(=O)[C@@H](NC(=O)[C@H](Cc1ccc(O)cc1)NC(=O)[C@H](CC(N)=O)NC(=O)[C@H](CC(=O)O)NC(=O)[C@@H](NC(=O)[C@H](Cc1ccccc1)NC(=O)[C@@H](NC(=O)[C@H](C)NC(=O)[C@H](CC(=O)O)NC(=O)[C@H](CO)NC(=O)[C@@H](N)Cc1c[nH]cn1)C(C)C)[C@@H](C)O)[C@@H](C)O)C(C)C)C(=O)N[C@@H](CC(C)C)C(=O)N[C@@H](CC(N)=O)C(N)=O [Aviptadil] |  | 97 | considered healthy | off external oxygen supply | 96 | breathed normally | breathed normally | considered healthy without any further post-COVID symptoms | 98 | returned to their professional work |
